The text below walks through data of US4472421A, “Azole antimycotics and their use in treating skin conditions caused by Pityrosporum ovale” (Bayer Aktiengesellschaft, priority 1974, dated 1984).

≈ marks a conversion by molar mass, not a printed value. Counter-ions that a name gives are not always drawn. Like-named read-outs stand apart in the source and are kept apart here.

In the assay the test system is Pityrosporum ovale. In words: MIC and PI determination on Abbe's medium agar slants, dilution series. The assay is classed as cell-based. Particulars: Malassezia furfur, 28° C. As for the experimental part:
Pityrosporum ovale was cultured and the MIC determinations were carried out with a large number of azole derivatives. The growth of Pityrosporum ovale is considerably slower than, for example, of species of Candida or Torulopsis--it takes 3 to 5 days. It requires Abbe's medium as a special nutrient medium.
1. Setting up the dilution series of each preparation: 6.4 mg of preparation are dissolved in 1 ml of analytical grade dimethylformamide and 9 ml of distilled water are added. 1 ml now contains 640 mcg of preparation. If 2 ml are withdrawn and added to 2 ml of H2 O, the resulting concentration is 320 mcg/ml. If this is continued progressively,the following dilution series, in mcg/ml, is obtained: 640-320-160-80-40-20-10-5-2.5-1.25-0.625-0.313-0.156-0.078-0.039-0.02-0.01
2. Charging the test tubes: 0.5 ml portions of the particular dilution are introduced into test tubes.
3. Charging with nutrient medium: Abbe's medium is used.
200 ml portions of Abbe's medium are introduced into nutrient medium flasks. For use, the previously calculated amount of Abbe's medium is liquefied in a steaming pot and cooled until only warm to the touch; 4.5 ml are then added to each test tube. A second person receives each test tube and twirls it between his hands, like a kitchen whisk. This achieves good mixing of the diluted preparation with the nutrient medium. Each test tube is then immediately brought into a slanting position, in the same way as is usually employed to prepare agar slants.
The culture control and the nutrient medium control are each 1 test tube in which 0.5 ml of H2 O is introduced in place of the preparation.
4. Inoculation with Pityrosporum ovale: A culture which had been grown for 3 weeks in Benham's fluid medium at 28° C. was used.
After the nutrient medium has solidified thoroughly in all the test tubes, 0.1 ml of culture is allowed to run over each slant, except for the test tube of the nutrient medium control. 0.1 ml of physiological NaCl solution is added to the latter.
5. Incubation and readings: The incubation is carried out at 28° C. After 3 days, the culture control test tubes show germ growth, which reaches an optimum after 5 days.
The MIC=minimum inhibitory concentration, and the PI=partial inhibition (retardation of growth by about 90% relative to the control, that is to say only about 10% of the germs have grown) are read off in comparison to the control.
Of course,--as is usual in microbiology--all the work was carried out under sterile conditions, that is to say, using, for example, sterile test tubes, pipettes, nutrient media and the like.

[1] abbreviates: 72 h, reading after 3 days, read-out: MIC (minimum inhibitory concentration), reading after 3 days.
Setting [2] is: 120 h, reading after 5 days, read-out: MIC (minimum inhibitory concentration), reading after 5 days.
[3] abbreviates: 72 h, reading after 3 days, read-out: PI (partial inhibition, growth reduced by at least 90% compared to the control), reading after 3 days.
Setting [4] is: 120 h, reading after 5 days, read-out: PI (partial inhibition, growth reduced by at least 90% compared to the control), reading after 5 days.

For `CC(C)(C)C(=O)C(Oc1ccc(Cl)cc1)n1ccnc1` (stereo not drawn) [Example 1, [1-imidazolyl-(1)]-[1-(4'-chloro)phenoxy]-3-dimethyl-butane-2-one], the MIC runs as follows: under setting [1], below 1 µg/mL; under setting [2], below 1 µg/mL.

For `CC(C)(C)C(=O)C(Oc1ccc(Cl)cc1Cl)n1ccnc1` (stereo not drawn) [Example 2], the MIC under setting [1] was below 1 µg/mL and the MIC under setting [2] was below 1 µg/mL.

Regarding `CC(C)(C)C(=O)C(Oc1ccc(Br)cc1)n1ccnc1` (stereo not drawn) [Example 3], the MIC under setting [1] is below 1 µg/mL and the MIC under setting [2] was below 1 µg/mL.

As to `CC(C)(C)C(=O)C(Oc1ccc(-c2ccc(Cl)cc2)cc1)n1ccnc1` (stereo not drawn) [Example 4, [1-imidazolyl-(1)]-[1-(4'-(4"-chlorophenyl)-phenoxy]-3,3-dimethyl-butan-2-one hydrochloride], the MIC is below 1 µg/mL under setting [1] and below 1 µg/mL under setting [2].

On to `CC(C)(C)C(=O)C(Cn1ccnc1)Oc1ccc(Cl)cc1Cl` (stereo not drawn) [Example 5, hydrochloride], for which the MIC was found to be 2 µg/mL under setting [1] and 2 µg/mL under setting [2]. In addition, the IC90 runs as follows: under setting [3], below 1 µg/mL; under setting [4], below 1 µg/mL.

Consider `CC(C)(C)C(O)C(Oc1ccc(-c2ccccc2)cc1)n1ccnc1` (stereo not drawn) [Example 7], for which the MIC came out at 4 µg/mL (≈ 11.9 µM) under setting [1] and 8 µg/mL (≈ 23.8 µM) under setting [2]. The IC90 came to 2 µg/mL (≈ 5.94 µM) under setting [3] and 2 µg/mL (≈ 5.94 µM) under setting [4].

On to `CC(C)(C)C(=O)C(Cn1ccnc1)Oc1ccc(Cl)cc1` (stereo not drawn) [Example 8], for which the MIC under setting [1] was 4 µg/mL (≈ 13 µM) and the MIC under setting [2] turned out to be 8 µg/mL (≈ 26.1 µM). In addition, the IC90 amounted to 2 µg/mL (≈ 6.52 µM) under setting [3] and 4 µg/mL (≈ 13 µM) under setting [4].

In the case of `Cc1ccccc1C1(n2ccnc2)c2ccccc2-c2ccccc21` [Example 9], the MIC was 8 µg/mL (≈ 24.8 µM) under setting [1] and 8 µg/mL (≈ 24.8 µM) under setting [2]. Besides, the IC90 came to 2 µg/mL (≈ 6.2 µM) under setting [3] and 4 µg/mL (≈ 12.4 µM) under setting [4].

Consider `C#CC(c1ccccc1)(c1ccccc1)n1ccnc1` [Example 10], for which the MIC was 8 µg/mL (≈ 31 µM) under setting [1] and 16 µg/mL (≈ 61.9 µM) under setting [2]. Moreover, the IC90 runs as follows: under setting [3], below 1 µg/mL; under setting [4], below 1 µg/mL.

Regarding `COC(=O)C(c1ccccc1)(c1ccccc1)n1ccnc1` [Example 11], the MIC under setting [1] came to 16 µg/mL (≈ 54.7 µM) and the MIC under setting [2] was 16 µg/mL (≈ 54.7 µM). Also, the IC90 under setting [3] was below 1 µg/mL and the IC90 under setting [4] is below 1 µg/mL.

In the case of `CC(C)(C)C(=O)C(Cn1ccnc1)Oc1ccc(-c2ccccc2)cc1` (stereo not drawn) [Example 12], the MIC is, setting by setting: under setting [1], 8 µg/mL (≈ 23 µM); under setting [2], 8 µg/mL (≈ 23 µM). In addition, the IC90 under setting [3] was below 1 µg/mL and the IC90 under setting [4] was below 1 µg/mL.

As to `Clc1ccccc1C(c1ccccc1)(c1ccccc1)n1ccnc1` [Example 13], the MIC came out at 16 µg/mL (≈ 46.4 µM) under setting [1] and 16 µg/mL (≈ 46.4 µM) under setting [2]. Besides, the IC90 was 8 µg/mL (≈ 23.2 µM) under setting [3] and 8 µg/mL (≈ 23.2 µM) under setting [4].

With `CCC(c1ccccc1)(c1ccccc1)n1ccnc1` [Example 14], the MIC under setting [1] turned out to be 32 µg/mL (≈ 122 µM) and the MIC under setting [2] worked out at 32 µg/mL (≈ 122 µM). Further, the IC90 under setting [3] worked out at 4 µg/mL (≈ 15.2 µM) and the IC90 under setting [4] is 4 µg/mL (≈ 15.2 µM).

As to `CC(=O)C(c1ccccc1)(c1ccccc1)n1ccnc1` [Example 15], the MIC amounted to 32 µg/mL (≈ 116 µM) under setting [1] and 64 µg/mL (≈ 232 µM) under setting [2]. The IC90 by setting is: under setting [3], 4 µg/mL (≈ 14.5 µM); under setting [4], 4 µg/mL (≈ 14.5 µM).

With `Clc1ccc(C(c2ccccc2)(c2ccccc2)n2ccnc2)cc1` [Example 16], the MIC under setting [1] was above 64 µg/mL and the MIC under setting [2] is above 64 µg/mL. The IC90 reads like this: under setting [3], 16 µg/mL (≈ 46.4 µM); under setting [4], 16 µg/mL (≈ 46.4 µM).

Take `Clc1cccc(C(c2ccccc2)(n2ccnc2)n2ccnc2)c1` [Example 17]: the MIC was above 64 µg/mL under setting [1] and above 64 µg/mL under setting [2]. Moreover, the IC90 is, setting by setting: under setting [3], 32 µg/mL (≈ 95.6 µM); under setting [4], 32 µg/mL (≈ 95.6 µM).

With `CC1(n2ccnc2)c2ccccc2CCc2ccccc21` [Example 18], the MIC under setting [1] was above 64 µg/mL and the MIC under setting [2] is above 64 µg/mL. Besides, the IC90 is, setting by setting: under setting [3], 32 µg/mL (≈ 117 µM); under setting [4], 32 µg/mL (≈ 117 µM).

Turning to `CC(C)(C)C(O)C(Oc1ccc(Cl)cc1Cl)(c1ccccc1)n1ccnc1` (stereo not drawn) [Example 19], the MIC by setting is: under setting [1], above 64 µg/mL; under setting [2], above 64 µg/mL. Further, the IC90 amounted to 64 µg/mL (≈ 158 µM) under setting [3] and 64 µg/mL (≈ 158 µM) under setting [4].

For the compound `Brc1cccc(C(c2ccccc2)(n2ccnc2)n2ccnc2)c1` [Example 20], the MIC is above 64 µg/mL under setting [1] and above 64 µg/mL under setting [2]. The IC90 runs as follows: under setting [3], 64 µg/mL (≈ 169 µM); under setting [4], 64 µg/mL (≈ 169 µM).

As to `Cn1ccnc1C(c1ccccc1)(c1ccc(-c2ccccc2)cc1)n1ccnc1` (stereo not drawn) [Example 21], the MIC is above 64 µg/mL under setting [1] and above 64 µg/mL under setting [2].

On to `Brc1cccc(C(c2ccccc2)(n2cncn2)n2cncn2)c1` [Example 22], for which the MIC under setting [1] is above 64 µg/mL and the MIC under setting [2] was above 64 µg/mL.
